From patent US20240116910A1, “Heterocycles as WIP1 Inhibitors” (PMV Pharmaceuticals, Inc., priority 2022, published 2024)

How the values were obtained:
[1] = target: recombinant His-tag Wip1 full length protein (amino acids #1-605) (Homo sapiens (Human), UniProt O15297); assay: Wip1 full length phosphatase enzyme FDP assay; type: biochemical; settings: fluorescein diphosphate (FDP) substrate, RT 2 hours, fluorescence Ex485/Em535
[2] = target: recombinant His-tag Wip1(2-420) protein (amino acids #2-420) (Homo sapiens (Human), UniProt O15297); assay: Wip1(2-420) phosphatase enzyme FDP assay; type: biochemical; settings: fluorescein diphosphate (FDP) substrate, RT 2 hours, fluorescence Ex485/Em535; read-out: WIP1 (Truncated 2-420) FDP Assay: IC50
recombinant His-tag Wip1(2-420) protein (amino acids #2-420), sequence (O15297 2-420): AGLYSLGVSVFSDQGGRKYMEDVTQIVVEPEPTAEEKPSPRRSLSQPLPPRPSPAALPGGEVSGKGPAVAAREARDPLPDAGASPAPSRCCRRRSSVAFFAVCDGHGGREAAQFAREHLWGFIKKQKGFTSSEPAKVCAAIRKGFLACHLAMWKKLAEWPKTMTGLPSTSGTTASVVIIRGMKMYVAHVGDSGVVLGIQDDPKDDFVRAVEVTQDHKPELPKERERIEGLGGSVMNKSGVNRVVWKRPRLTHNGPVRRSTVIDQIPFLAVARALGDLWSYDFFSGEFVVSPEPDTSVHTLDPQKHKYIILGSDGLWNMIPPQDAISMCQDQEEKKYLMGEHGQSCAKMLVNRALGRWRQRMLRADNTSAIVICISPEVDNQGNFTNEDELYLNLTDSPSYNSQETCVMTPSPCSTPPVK

recombinant His-tag Wip1 full length protein (amino acids #1-605), sequence (O15297 whole entry, the tested form may be a part): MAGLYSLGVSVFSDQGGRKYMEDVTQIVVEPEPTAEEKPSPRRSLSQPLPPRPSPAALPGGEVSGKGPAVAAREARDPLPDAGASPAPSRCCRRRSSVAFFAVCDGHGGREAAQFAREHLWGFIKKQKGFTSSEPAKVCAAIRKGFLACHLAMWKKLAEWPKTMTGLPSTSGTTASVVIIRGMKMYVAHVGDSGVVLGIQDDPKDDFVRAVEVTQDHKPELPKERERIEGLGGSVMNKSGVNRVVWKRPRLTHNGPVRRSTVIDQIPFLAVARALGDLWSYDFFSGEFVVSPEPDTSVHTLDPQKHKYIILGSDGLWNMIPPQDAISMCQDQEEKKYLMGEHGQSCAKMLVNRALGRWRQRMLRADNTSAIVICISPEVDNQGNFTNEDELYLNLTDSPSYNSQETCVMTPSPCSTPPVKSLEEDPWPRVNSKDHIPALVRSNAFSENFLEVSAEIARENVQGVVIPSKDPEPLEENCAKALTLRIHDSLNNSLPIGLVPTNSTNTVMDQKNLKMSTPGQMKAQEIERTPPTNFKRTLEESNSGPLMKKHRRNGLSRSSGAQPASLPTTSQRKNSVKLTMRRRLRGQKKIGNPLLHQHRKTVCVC

| IC50 [1] | IC50 [2] | Compound |
| --- | --- | --- |
| 14 nM | 6 nM | CN(Cc1ncc(C(=O)N[C@@H](CC2CCCCC2)C(=O)Nc2ccncc2)s1)c1cncc(Cl)c1 [Compound 287, 2-[[(5-chloro-3-pyridyl)-methyl-amino]methyl]-N-[(1S)-1-(cyclohexylmethyl)-2-oxo-2-(4-pyridylamino)ethyl]thiazole-5-carboxamide] |
| 11 nM | 31 nM | CN(Cc1ccc(C(=O)N[C@@H](CC2CCCCC2)C(=O)NC2CCC(N(C)C)CC2)s1)c1cncc(Cl)c1 (stereo partly drawn) [Compound 298, 5-[[(5-chloro-3-pyridyl)-methyl-amino]methyl]-N-[(1S)-1-(cyclohexylmethyl)-2-[[4-(dimethylamino)cyclohexyl]amino]-2-oxo-ethyl]thiophene-2-carboxamide] |
| 15 nM | 6 nM | Cc1ncc(Cl)cc1NCc1ncc(C(=O)N[C@@H](CC2CCCCC2)C(=O)Nc2ccncc2)s1 [Compound 300, 2-[[(5-chloro-2-methyl-3-pyridyl)amino]methyl]-N-[(1S)-1-(cyclohexylmethyl)-2-oxo-2-(4-pyridylamino)ethyl]thiazole-5-carboxamide] |
| 23 nM | 42 nM | CN(Cc1ncc(C(=O)N[C@@H](CC2CCCCC2)C(=O)Nc2ccncc2)s1)c1cncc(Cl)c1 [Compound 301, 2-[[(5-Chloro-3-pyridyl)-methyl-amino]methyl]-N-[(1S)-1-(cyclohexylmethyl)-2-oxo-2-(4-pyridylamino)ethyl]thiazole-5-carboxamide] |
| 15 nM | 55 nM | O=C(N[C@@H](CC1CCCCC1)C(=O)Nc1ccccn1)c1cnc(CNc2cncc(Cl)c2)s1 [Compound 302, 2-[[(5-chloro-3-pyridyl)amino]methyl]-N-[(1S)-1-(cyclohexylmethyl)-2-oxo-2-(2-pyridylamino)ethyl]thiazole-5-carboxamide] |
| 67 nM | 67 nM | CN(Cc1ncc(C(=O)N[C@@H](CC2CCCCC2)C(=O)N[C@H]2CC[C@H](N(C)C)CC2)s1)c1cncc(Cl)c1 [Compound 303, 2-[[(5-chloro-3-pyridyl)-methyl-amino]methyl]-N-[(1S)-1-(cyclohexylmethyl)-2-[[4-(dimethylamino)cyclohexyl]amino]-2-oxo-ethyl]thiazole-5-carboxamide] |

Second part, the compound before the results:

| Compound | IC50 [1] | IC50 [2] |
| --- | --- | --- |
| Cc1ncc(Cl)cc1N[C@@H](C)c1ccc(C(=O)N[C@@H](CC2CCCC2)C(=O)Nc2ccc3c(c2)CCCN3C)s1 [Compound 168, (2S)-2-({5-[(1S)-1-[(5-chloro-2-methylpyridin-3-yl)amino]ethyl]thiophen-2-yl}formamido)-3-cyclopentyl-N-(1-methyl-1,2,3,4-tetrahydroquinolin-6-yl)propanamide] | 15 nM | 11 nM |
| Cc1ncc(Cl)cc1N[C@@H](Cc1cnn(C)c1)c1ccc(C(=O)N[C@@H](CC2CCCC2)C(=O)NC2CC2)s1 [Compound 171, (2S)-2-({5-[(1S)-1-[(5-chloro-2-methylpyridin-3-yl)amino]-2-(1-methyl-1H-pyrazol-4-yl)ethyl]thiophen-2-yl}formamido)-3-cyclopentyl-N-cyclopropylpropanamide] | 10 nM | 7 nM |
| Cc1cc(NC(=O)[C@@H](NC(=O)c2ccc([C@H](C)Nc3cc(Cl)cnc3C)s2)C2CCCCC2)ccn1 [Compound 175, (2S)-2-({5-[(1S)-1-[(5-chloro-2-methylpyridin-3-yl)amino]ethyl]thiophen-2-yl}formamido)-2-cyclohexyl-N-(2-methylpyridin-4-yl)acetamide] | 15 nM | 13 nM |
| Cc1ncc(Cl)cc1N[C@@H](C)c1ccc(C(=O)N[C@H](C(=O)Nc2cnn(C)c2)C2CCCCC2)s1 [Compound 177, (2S)-2-({5-[(1S)-1-[(5-chloro-2-methylpyridin-3-yl)amino]ethyl]thiophen-2-yl}formamido)-2-cyclohexyl-N-(1-methyl-1H-pyrazol-4-yl)acetamide] | 23 nM | 18 nM |
| Cc1cc(NC(=O)[C@H](CCC(C)C)NC(=O)c2ccc([C@H](C)Nc3cc(Cl)cnc3C)s2)ccn1 [Compound 210, (2S)-2-({5-[(1S)-1-[(5-chloro-2-methylpyridin-3-yl)amino]ethyl]thiophen-2-yl}formamido)-5-methyl-N-(2-methylpyridin-4-yl)hexanamide] | 10 nM | 7 nM |
| Cc1ncc(Cl)cc1N[C@@H](C)c1ncc(C(=O)N[C@@H](CC2CCCC2)C(=O)NC23CC(C2)C3)s1 [Compound 278, (2S)-N-{bicyclo[1.1.1]pentan-1-yl}-2-({2-[(1S)-1-[(5-chloro-2-methylpyridin-3-yl)amino]ethyl]-1,3-thiazol-5-yl}formamido)-3-cyclopentylpropanamide] | 30 nM | 19 nM |
| Cc1ncc(Cl)cc1N[C@@H](C)c1ncc(C(=O)N[C@@H](CC2CCCC2)C(=O)NC2CC2)s1 [Compound 279, (2S)-2-({2-[(1S)-1-[(5-chloro-2-methylpyridin-3-yl)amino]ethyl]-1,3-thiazol-5-yl}formamido)-3-cyclopentyl-N-cyclopropylpropanamide] | 53 nM | 41 nM |
| Cc1ncc(Cl)cc1NC(C)c1ncc(C(=O)N[C@@H](CC2CCCC2)C(=O)NC2CC2)s1 (stereo partly drawn) [Compound 280, (2S)-2-[(2-{1-[(5-chloro-2-methylpyridin-3-yl)amino]ethyl}-1,3-thiazol-5-yl)formamido]-3-cyclopentyl-N-cyclopropylpropanamide] | 70 nM | 41 nM |
| O=C(N[C@@H](CC1CCCCC1)C(=O)NC1CCOCC1)c1cnc(CNc2ccnc(C(F)(F)F)c2)s1 [Compound 305, N-[(1S)-1-(cyclohexylmethyl)-2-oxo-2-(tetrahydropyran-4-ylamino)ethyl]-2-[[[2-(trifluoromethyl)-4-pyridyl]amino]methyl]thiazole-5-carboxamide] | 31 nM | 90 nM |
| O=C(N[C@@H](CC1CCCCC1)C(=O)NC1CC1)c1cnc(CN2CCc3ccc(C(F)(F)F)cc32)s1 [Compound 306, N-[(1S)-1-(cyclohexylmethyl)-2-(cyclopropylamino)-2-oxo-ethyl]-2-[[6-(trifluoromethyl)indolin-1-yl]methyl]thiazole-5-carboxamide] | 38 nM | 83 nM |
